# Like-named read-outs stand apart in the source and are kept apart here.
# What was measured:
# [1] = 32% DBM in hyaluronan carrier, histology after 28 days
# Description: Osteoinductivity: Cortical bone from three donors ([…], […], […]) was processed using a control process, 0 hour H2O2 with no sonication, a treatment process with 1 hour, 3 hours, and 5 hours of H2O2 treatment, and a negative control. After processing, the bone was ground, demineralized, and prepared into 32% Demineralized Bone Matrix in a hyaluronan carrier. Samples (15 mg) were implanted bilaterally into the hamstring muscle in an athymic mouse model, approved by the University of Medicine and Dentistry of New Jersey animal care and use committee. Implants were evaluated histologically after 28 days.
# [2] = tested on: Staphylococcus aureus; assay: Bacteriological sterility: log reduction on cortical bone samples; format: cell-based; settings: single process step; for Microbiological Log Reductions T2: full cycle time; for Microbiological Log Reductions T1: one quarter cycle time
# Description: (§1) Bacteriological Sterility: Cortical bone samples were subjected to the previous steps of the process. […] The samples were assayed for bacteria activity, using standard assays.
# [3] = tested on: Bacillus subtilis (vegetative); assay: as above; format: cell-based; settings: single process step; for Microbiological Log Reductions T2: full cycle time; for Microbiological Log Reductions T1: one quarter cycle time
# Description: as §1
# [4] = tested on: Pseudomonas aeruginosa; assay: as above; format: cell-based; settings: single process step; for Microbiological Log Reductions T2: full cycle time; for Microbiological Log Reductions T1: one quarter cycle time
# Description: as §1
# [5] = tested on: Candida albicans; assay: as above; format: cell-based; settings: single process step; for Microbiological Log Reductions T2: full cycle time; for Microbiological Log Reductions T1: one quarter cycle time
# Description: as §1
# [6] = tested on: Escherichia coli; assay: as above; format: cell-based; settings: single process step; for Microbiological Log Reductions T2: full cycle time; for Microbiological Log Reductions T1: one quarter cycle time
# Description: as §1
# [7] = tested on: Staphylococcus epidermidis; assay: as above; format: cell-based; settings: single process step; for Microbiological Log Reductions T2: full cycle time; for Microbiological Log Reductions T1: one quarter cycle time
# Description: as §1
Compound,mean (SD) osteoinductivity score ([1]; 1 hour H2O2 treatment of bone),mean (SD) osteoinductivity score ([1]; 3 hours H2O2 treatment of bone),mean (SD) osteoinductivity score ([1]; 5 hours H2O2 treatment of bone),Microbiological Log Reductions T2 [2] [Log],Microbiological Log Reductions T1 [2] [Log],Microbiological Log Reductions T2 [3] [Log],Microbiological Log Reductions T1 [3] [Log],Microbiological Log Reductions T2 [4] [Log],Microbiological Log Reductions T1 [4] [Log],Microbiological Log Reductions T2 [5] [Log],Microbiological Log Reductions T1 [5] [Log],Microbiological Log Reductions T2 [6] [Log],Microbiological Log Reductions T1 [6] [Log],Microbiological Log Reductions T2 [7] [Log],Microbiological Log Reductions T1 [7] [Log]
"OO [H2O2, hydrogen peroxide]",3.04 (0.97),2.57 (1.36),1.47 (1.10),>5.93,>5.93,>5.25,>5.25,>5.09,>5.09,>5.10,>5.47,>5.19,>5.19,>5.21,>5.21
Triton X-100,–,–,–,0.20,−0.59,2.41,2.56,3.40,2.48,1.58,1.78,1.82,0.03,0.41,0.56

# Reference: patent US20040037735A1, “Allograft tissue purification process for cleaning bone” (priority 2002, published 2004)
